Laboratory results reported in ChEMBL document CHEMBL5291721, “A preclinical secondary pharmacology resource illuminates target-adverse drug reaction associations of marketed drugs” (Nat Commun, 2023).

Key:
[1] = molecular target: T1, Alpha-2A adrenergic receptor (Homo sapiens, UniProt P08913)
T1 sequence (P08913 whole entry): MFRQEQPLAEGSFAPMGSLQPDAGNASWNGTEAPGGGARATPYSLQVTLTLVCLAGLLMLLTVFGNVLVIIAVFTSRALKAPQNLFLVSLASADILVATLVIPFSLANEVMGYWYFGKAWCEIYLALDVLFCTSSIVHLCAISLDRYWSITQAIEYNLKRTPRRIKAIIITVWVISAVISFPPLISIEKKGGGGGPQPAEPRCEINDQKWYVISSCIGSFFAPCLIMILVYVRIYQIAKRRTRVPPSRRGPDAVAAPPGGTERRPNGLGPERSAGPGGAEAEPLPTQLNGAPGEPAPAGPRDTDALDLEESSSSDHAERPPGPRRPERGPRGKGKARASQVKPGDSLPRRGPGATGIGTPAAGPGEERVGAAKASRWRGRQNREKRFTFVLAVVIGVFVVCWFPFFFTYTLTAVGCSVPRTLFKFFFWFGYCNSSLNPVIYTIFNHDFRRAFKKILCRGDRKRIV

[2] = molecular target: T2, Muscarinic acetylcholine receptor M2 (Homo sapiens, UniProt P08172)
T2 sequence (P08172 whole entry): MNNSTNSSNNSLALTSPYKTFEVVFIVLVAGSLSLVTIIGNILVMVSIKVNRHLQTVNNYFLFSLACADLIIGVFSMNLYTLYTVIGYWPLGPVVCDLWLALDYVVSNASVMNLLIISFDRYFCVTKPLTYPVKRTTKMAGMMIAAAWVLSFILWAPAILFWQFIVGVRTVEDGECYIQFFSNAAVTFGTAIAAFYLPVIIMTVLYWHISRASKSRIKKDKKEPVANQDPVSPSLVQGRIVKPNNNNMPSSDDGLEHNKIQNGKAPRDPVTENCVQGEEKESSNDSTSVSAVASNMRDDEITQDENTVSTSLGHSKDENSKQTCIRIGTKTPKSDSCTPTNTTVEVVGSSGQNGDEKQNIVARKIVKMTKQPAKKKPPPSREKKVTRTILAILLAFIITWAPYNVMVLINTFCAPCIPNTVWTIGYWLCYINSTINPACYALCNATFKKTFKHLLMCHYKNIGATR

D(1A) dopamine receptor = D(1A) dopamine receptor (Homo sapiens, UniProt P21728)
Sequence of D(1A) dopamine receptor (P21728 whole entry): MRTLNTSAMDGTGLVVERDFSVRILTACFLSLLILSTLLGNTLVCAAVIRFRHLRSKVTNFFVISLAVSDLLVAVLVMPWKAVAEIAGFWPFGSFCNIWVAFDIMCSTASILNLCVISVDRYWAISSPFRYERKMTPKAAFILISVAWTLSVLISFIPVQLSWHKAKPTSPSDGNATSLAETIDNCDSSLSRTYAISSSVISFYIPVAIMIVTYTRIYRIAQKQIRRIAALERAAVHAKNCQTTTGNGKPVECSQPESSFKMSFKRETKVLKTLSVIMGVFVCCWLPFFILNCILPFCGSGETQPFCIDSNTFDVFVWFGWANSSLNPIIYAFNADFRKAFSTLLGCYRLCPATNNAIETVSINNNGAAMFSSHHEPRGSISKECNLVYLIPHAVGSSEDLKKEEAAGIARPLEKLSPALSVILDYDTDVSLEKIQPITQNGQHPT

D(3) dopamine receptor = D(3) dopamine receptor (Homo sapiens, UniProt P35462)
Sequence of D(3) dopamine receptor (P35462 whole entry): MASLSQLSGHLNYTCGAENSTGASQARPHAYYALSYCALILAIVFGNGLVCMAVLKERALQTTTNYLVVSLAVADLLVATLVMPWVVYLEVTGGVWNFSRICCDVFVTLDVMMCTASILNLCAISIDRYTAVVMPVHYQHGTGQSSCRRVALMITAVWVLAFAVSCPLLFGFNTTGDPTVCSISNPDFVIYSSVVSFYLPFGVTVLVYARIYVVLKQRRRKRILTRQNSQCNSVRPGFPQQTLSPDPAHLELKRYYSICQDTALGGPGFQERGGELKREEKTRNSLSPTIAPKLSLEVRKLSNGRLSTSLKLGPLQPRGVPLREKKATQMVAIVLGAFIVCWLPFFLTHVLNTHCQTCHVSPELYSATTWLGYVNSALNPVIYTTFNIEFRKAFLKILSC

Estrogen receptor = molecular target: T3, Estrogen receptor (Homo sapiens, UniProt P03372)
T3 sequence (P03372 whole entry): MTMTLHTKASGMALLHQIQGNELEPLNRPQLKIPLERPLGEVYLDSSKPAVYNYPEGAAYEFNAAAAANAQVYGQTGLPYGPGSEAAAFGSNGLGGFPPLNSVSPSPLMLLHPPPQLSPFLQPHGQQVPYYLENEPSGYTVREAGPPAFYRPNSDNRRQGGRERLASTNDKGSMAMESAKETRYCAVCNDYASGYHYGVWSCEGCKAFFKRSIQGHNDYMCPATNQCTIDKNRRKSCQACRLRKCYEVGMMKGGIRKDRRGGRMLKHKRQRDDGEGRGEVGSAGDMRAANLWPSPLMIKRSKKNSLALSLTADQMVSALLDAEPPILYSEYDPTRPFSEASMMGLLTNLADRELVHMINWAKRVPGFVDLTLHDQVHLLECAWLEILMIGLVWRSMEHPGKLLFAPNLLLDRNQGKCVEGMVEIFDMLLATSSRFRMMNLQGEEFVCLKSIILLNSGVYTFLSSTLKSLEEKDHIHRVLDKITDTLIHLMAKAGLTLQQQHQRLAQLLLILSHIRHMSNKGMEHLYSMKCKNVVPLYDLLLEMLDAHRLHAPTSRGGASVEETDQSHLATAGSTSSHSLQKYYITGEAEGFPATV

Prothrombin = Prothrombin (Homo sapiens, UniProt P00734); assay type: functional
[3] = molecular target: T4, 5-hydroxytryptamine receptor 1A (Homo sapiens, UniProt P08908)
T4 sequence (P08908 whole entry): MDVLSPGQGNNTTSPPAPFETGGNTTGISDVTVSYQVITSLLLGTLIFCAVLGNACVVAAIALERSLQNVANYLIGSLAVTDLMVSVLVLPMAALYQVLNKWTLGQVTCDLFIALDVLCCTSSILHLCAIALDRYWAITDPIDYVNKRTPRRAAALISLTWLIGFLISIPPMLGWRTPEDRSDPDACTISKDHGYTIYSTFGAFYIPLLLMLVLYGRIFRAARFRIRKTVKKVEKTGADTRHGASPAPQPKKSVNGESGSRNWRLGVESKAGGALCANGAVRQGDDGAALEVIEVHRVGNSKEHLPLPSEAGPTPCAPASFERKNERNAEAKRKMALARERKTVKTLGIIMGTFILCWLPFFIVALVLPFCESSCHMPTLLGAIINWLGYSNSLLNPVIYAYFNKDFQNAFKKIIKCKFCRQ

[4] = molecular target: 5-hydroxytryptamine receptor 2B (Homo sapiens, UniProt P41595); assay type: functional, cell-based
Sequence of 5-hydroxytryptamine receptor 2B (P41595 whole entry): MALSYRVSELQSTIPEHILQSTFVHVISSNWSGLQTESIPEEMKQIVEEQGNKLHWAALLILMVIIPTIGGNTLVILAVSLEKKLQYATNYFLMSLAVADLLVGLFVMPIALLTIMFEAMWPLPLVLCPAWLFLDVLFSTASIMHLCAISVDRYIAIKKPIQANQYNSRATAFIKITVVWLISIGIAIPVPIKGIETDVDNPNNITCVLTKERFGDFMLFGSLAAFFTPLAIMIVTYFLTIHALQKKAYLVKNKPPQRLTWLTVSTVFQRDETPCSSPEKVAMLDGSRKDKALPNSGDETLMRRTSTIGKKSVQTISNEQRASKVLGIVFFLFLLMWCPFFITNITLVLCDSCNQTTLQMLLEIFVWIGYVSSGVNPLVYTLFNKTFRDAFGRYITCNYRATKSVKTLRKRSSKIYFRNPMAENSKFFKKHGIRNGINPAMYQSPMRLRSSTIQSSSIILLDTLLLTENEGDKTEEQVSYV

[5] = molecular target: Vascular endothelial growth factor receptor 2 (Homo sapiens, UniProt P35968); assay type: functional
[6] = molecular target: T5, Prostaglandin G/H synthase 1 (Homo sapiens, UniProt P23219); assay type: functional
T5 sequence (P23219 whole entry): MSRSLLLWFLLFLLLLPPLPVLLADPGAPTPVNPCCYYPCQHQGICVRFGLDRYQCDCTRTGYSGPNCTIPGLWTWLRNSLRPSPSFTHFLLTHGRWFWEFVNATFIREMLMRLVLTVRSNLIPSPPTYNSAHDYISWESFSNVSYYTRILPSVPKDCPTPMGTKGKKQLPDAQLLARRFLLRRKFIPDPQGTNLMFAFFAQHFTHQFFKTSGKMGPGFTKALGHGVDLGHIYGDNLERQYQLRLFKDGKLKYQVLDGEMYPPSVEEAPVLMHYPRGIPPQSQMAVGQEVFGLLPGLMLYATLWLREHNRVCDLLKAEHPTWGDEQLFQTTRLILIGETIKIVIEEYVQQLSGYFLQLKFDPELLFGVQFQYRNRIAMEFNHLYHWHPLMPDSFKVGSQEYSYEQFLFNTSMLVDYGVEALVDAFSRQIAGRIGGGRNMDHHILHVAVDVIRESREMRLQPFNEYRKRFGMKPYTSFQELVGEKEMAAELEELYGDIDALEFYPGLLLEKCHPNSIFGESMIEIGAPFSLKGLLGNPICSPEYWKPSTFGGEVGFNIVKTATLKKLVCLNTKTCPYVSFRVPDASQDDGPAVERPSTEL

[7] = molecular target: T5, Prostaglandin G/H synthase 1; assay type: functional; remark: listed apart in the source
[8] = molecular target: Sodium-dependent noradrenaline transporter (Homo sapiens, UniProt P23975)
Sequence of Sodium-dependent noradrenaline transporter (P23975 whole entry): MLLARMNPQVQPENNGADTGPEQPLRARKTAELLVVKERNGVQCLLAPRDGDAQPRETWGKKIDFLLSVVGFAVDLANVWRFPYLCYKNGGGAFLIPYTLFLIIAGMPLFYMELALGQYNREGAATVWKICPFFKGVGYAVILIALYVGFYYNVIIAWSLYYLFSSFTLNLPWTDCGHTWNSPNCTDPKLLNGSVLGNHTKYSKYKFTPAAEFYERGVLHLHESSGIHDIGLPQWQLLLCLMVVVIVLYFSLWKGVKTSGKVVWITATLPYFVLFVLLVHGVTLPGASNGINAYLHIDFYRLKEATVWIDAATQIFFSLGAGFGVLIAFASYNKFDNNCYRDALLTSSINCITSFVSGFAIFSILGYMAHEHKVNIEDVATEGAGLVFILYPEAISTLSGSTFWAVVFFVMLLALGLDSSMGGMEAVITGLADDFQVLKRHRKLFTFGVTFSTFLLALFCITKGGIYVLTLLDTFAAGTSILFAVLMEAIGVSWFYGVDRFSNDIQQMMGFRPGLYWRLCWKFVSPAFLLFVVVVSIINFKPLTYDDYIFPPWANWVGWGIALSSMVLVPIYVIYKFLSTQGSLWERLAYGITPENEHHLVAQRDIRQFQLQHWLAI

[9] = molecular target: Sodium-dependent dopamine transporter (Homo sapiens, UniProt Q01959)
Sequence of Sodium-dependent dopamine transporter (Q01959 whole entry): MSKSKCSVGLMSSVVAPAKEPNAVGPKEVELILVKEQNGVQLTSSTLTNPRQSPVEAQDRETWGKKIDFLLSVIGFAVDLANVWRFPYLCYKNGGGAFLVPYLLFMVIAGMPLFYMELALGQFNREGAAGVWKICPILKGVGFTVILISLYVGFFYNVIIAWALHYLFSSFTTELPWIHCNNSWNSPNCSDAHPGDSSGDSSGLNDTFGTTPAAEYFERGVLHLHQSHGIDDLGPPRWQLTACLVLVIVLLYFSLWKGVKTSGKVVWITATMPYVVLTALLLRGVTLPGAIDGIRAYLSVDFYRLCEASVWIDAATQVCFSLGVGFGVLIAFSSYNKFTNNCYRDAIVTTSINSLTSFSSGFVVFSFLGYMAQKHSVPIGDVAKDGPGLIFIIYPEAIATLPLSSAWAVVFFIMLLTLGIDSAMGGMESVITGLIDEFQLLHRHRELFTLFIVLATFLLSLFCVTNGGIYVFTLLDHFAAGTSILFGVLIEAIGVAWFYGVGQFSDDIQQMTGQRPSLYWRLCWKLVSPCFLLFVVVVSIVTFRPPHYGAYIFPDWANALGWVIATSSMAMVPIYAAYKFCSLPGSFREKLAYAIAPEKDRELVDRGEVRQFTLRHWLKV

[10] = molecular target: Sodium-dependent serotonin transporter (Homo sapiens, UniProt P31645)
Sequence of Sodium-dependent serotonin transporter (P31645 whole entry): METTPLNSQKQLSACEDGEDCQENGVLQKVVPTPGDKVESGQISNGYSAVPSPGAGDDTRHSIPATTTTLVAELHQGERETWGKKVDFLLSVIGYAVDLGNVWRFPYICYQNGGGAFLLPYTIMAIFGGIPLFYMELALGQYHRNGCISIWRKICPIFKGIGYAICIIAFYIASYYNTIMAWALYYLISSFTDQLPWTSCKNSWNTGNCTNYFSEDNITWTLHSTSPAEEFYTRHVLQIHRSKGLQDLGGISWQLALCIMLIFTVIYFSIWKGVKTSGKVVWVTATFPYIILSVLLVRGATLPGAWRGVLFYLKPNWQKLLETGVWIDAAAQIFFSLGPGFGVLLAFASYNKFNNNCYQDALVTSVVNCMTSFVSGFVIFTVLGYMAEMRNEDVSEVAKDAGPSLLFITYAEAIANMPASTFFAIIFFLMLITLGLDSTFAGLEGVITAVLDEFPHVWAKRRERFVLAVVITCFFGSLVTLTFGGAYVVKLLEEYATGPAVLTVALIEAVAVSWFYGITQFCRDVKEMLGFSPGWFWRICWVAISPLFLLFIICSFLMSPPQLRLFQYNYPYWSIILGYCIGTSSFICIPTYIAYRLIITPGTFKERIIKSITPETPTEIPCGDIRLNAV

Thromboxane A2 receptor = molecular target: T6, Thromboxane A2 receptor (Homo sapiens, UniProt P21731); assay type: functional, cell-based
T6 sequence (P21731 whole entry): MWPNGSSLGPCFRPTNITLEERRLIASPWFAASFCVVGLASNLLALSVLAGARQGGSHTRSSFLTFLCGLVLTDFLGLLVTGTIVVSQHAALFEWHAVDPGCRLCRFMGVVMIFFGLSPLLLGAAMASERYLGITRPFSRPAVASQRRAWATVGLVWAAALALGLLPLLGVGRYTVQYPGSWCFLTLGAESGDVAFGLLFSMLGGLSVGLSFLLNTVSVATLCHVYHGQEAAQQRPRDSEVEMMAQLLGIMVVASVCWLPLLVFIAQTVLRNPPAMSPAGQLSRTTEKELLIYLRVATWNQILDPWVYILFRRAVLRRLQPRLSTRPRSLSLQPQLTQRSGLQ
Also: assay procedure not described here.

| SMILES | AC50 [1] [µM] | AC50 [2] [µM] | AC50 (D(1A) dopamine receptor) [µM] | AC50 (D(3) dopamine receptor) [µM] | AC50 (Estrogen receptor) [µM] | AC50 (Prothrombin) [µM] | AC50 [3] [µM] | AC50 [4] [µM] | AC50 [5] [µM] | AC50 [6] [µM] | AC50 [7] [µM] | AC50 [8] [µM] | AC50 [9] [µM] | AC50 [10] [µM] | AC50 (Thromboxane A2 receptor) [µM] |
| --- | --- | --- | --- | --- | --- | --- | --- | --- | --- | --- | --- | --- | --- | --- | --- |
| CN1CCCC(CC2c3ccccc3Sc3ccccc32)C1 (stereo not given) [METHIXENE] | 4.82 | 0.0054 | 2.03 | 0.742 | > 30 | > 30 | 1.9 | > 30 | > 30 | > 30 | > 30 | 3.29 | > 30 | 18.2 | 25 |
| O=C1Nc2ccccc2C1(c1ccc(O)cc1)c1ccc(O)cc1 [OXYPHENISATINE] | > 30 | 11.9 | > 30 | > 30 | > 30 | > 30 | > 30 | > 30 | > 30 | > 30 | > 30 | > 30 | > 30 | > 30 | > 30 |
| COCC(=O)O[C@]1(CCN(C)CCCc2nc3ccccc3[nH]2)CCc2cc(F)ccc2[C@@H]1C(C)C [MIBEFRADIL] | 23.4 | 3.85 | 10.1 | 0.825 | > 30 | > 30 | 0.746 | > 30 | > 30 | > 30 | > 30 | 20.2 | 9.53 | 22.8 | 21.9 |
| CC(C)(Oc1ccc(C(=O)c2ccc(Cl)cc2)cc1)C(=O)O [FENOFIBRIC ACID] | > 30 | > 30 | > 30 | > 30 | > 30 | > 30 | > 30 | > 30 | > 30 | > 30 | > 30 | > 30 | > 30 | > 30 | > 30 |
| CN1C(C(=O)Nc2ccccn2)=C(OC(=O)/C=C/c2ccccc2)c2ccccc2S1(=O)=O [PIROXICAM CINNAMATE] | > 30 | > 30 | > 30 | > 30 | > 30 | > 30 | 13.4 | > 30 | > 30 | 16.3 | > 30 | > 30 | > 30 | > 30 | > 30 |
| Cc1cnc(C(=O)O)c[n+]1[O-] [ACIPIMOX] | > 30 | > 30 | > 30 | > 30 | > 30 | > 30 | > 30 | > 30 | > 30 | > 30 | > 30 | > 30 | > 30 | > 30 | > 30 |
| CC(O)(CC(=O)O)CC(=O)O [MEGLUTOL] | > 30 | > 30 | > 30 | > 30 | > 30 | > 30 | > 30 | > 30 | > 30 | > 30 | > 30 | > 30 | > 30 | > 30 | > 30 |
| CCCCC(=O)O[C@H]1CC[C@H]2[C@@H]3CCc4cc(O)ccc4[C@H]3CC[C@]12C [ESTRADIOL VALERATE] | > 30 | > 30 | > 30 | > 30 | 0.0822 | > 30 | > 30 | > 30 | > 30 | 7.05 | > 30 | > 30 | > 30 | > 30 | > 30 |
| NC(=O)N/N=C/c1ccc([N+](=O)[O-])o1 [NITROFURAZONE] | > 30 | > 30 | > 30 | > 30 | > 30 | > 30 | > 30 | > 30 | > 30 | > 30 | > 30 | > 30 | > 30 | > 30 | > 30 |
| Cc1ccc2c([nH]c(=O)c3c(=O)cc(C(=O)OCCC(C)C)oc32)c1C | > 30 | 11.8 | > 30 | > 30 | > 30 | > 30 | > 30 | > 10 | > 30 | > 30 | 21.3 | > 30 | > 30 | > 30 | > 30 |
| [H]/N=C(/N)NS(=O)(=O)c1ccc(N)cc1 [SULFAGUANIDINE] | > 30 | > 30 | > 30 | > 30 | > 30 | > 30 | > 30 | > 30 | > 30 | > 30 | > 30 | > 30 | > 30 | > 30 | > 30 |
| Cc1cn(-c2cc(NC(=O)c3ccc(C)c(Nc4nccc(-c5cnccn5)n4)c3)cc(C(F)(F)F)c2)cn1 [RADOTINIB] | > 30 | > 30 | > 30 | > 30 | > 30 | > 30 | > 30 | > 30 | 1.54 | 26 | > 30 | > 30 | > 30 | > 30 | > 30 |
